Laboratory results published in ChEMBL document CHEMBL3507680, “University of Dundee, Gates Library screen for HepG2 cell viability”.

test: Human HepG2 cell viability assay in 384 well format; assay type: toxicity, cell-based; design: dose 125 nL, time 70.5 hour; concentration not given beside the values; details: HepG2 cells, read-out: Inhibition

Row | SMILES | cytotoxicity at 70.5 h
1 | COCC1CC2(CCN(Cc3cccnc3)CC2)CN1c1ncccn1 (stereo not given) | -0.169%
2 | COC(=O)c1cc(NCc2cscn2)ccc1C | -4.82%
3 | O=C(N1CCCC1)N1CCC(Nc2ccncn2)CC1 | -3.32%
4 | CC(NC(=O)CCCc1ccc(Cl)cc1)c1nnn[nH]1 (stereo not given) | -11.1%
5 | COc1ccc2c(C)c(C(=O)NCCCc3csc(N)n3)oc2c1 | 8.41%
6 | CC(C)N[C@@H]1CO[C@H](CNC(=O)Nc2ccccc2)[C@H]1O | -2.59%
7 | COc1ccccc1CN1CCCC(n2cccn2)C1 (stereo not given) | -1.34%
8 | O=C(N[C@H]1CCCC[C@@H]1O)c1cccc(-c2nc3ccccc3[nH]2)c1 | -2.51%
9 | Cc1cc(C)c(CNC(=O)NCC2CCCO2)c(=O)[nH]1 (stereo not given) | 26.7%
10 | O=C(O)c1nn(CC2CC2)c2c1CN(S(=O)(=O)c1cccnc1)CC2 | -11%
11 | COc1cccc(-c2nc(C)c(C(=O)N[C@@H](CCSC)C(=O)O)s2)c1 | -21.7%
12 | CC(C)(C)c1cn(C2CCN(C(=O)c3cnccn3)CC2)nn1 | -13.1%
13 | Cc1nc(CN2CCCN(CCCc3ccccc3)CC2)no1 | -7.12%
14 | COc1ccc2[nH]cc(C(=O)N3C[C@@H](O)[C@H](N4CCOCC4)C3)c2c1 | -9.96%
15 | NC(=O)C1CCN(C(=O)CCCc2nnc(-c3ccccc3)o2)CC1 | -10.4%
16 | Cc1ccc(CCNc2ncc(C)c(-c3ccnn3C)n2)s1 | -8.02%
17 | CC(C)CCN1CCC2(CCCN(c3nncs3)C2)C1 (stereo not given) | -5.61%
18 | COc1ccc(-n2nc(C(C)C)nc2Cn2cncn2)cc1 | -8.35%
19 | CN(CCc1cn[nH]c1)C(=O)C1CC(=O)N(Cc2cccnc2)C1 (stereo not given) | 34.9%
20 | O=C(O)c1ccccc1CN1CCC2(Cc3ccccc3CNC2=O)C1 (stereo not given) | -5.35%
21 | CCN1C(=O)CCCC12CCCN(C(=O)c1occc1C)C2 (stereo not given) | -10.4%
22 | COC[C@@]12CCC[C@@H]1CN(C(=O)Cc1ccccn1)C2 | 9.13%
23 | CCNc1nc(C(=O)N(C)Cc2nc(CC)no2)cs1 | -109%
24 | c1cc2c(cc1CN1CCC(Cc3noc(C4CC4)n3)CC1)OCCO2 | 20.2%
25 | CSC1(CNc2ccc(Br)cn2)CCOCC1 | -2.33%
26 | COc1ncccc1CNC(=O)NCCNC(=O)c1ccco1 | 0.312%
27 | CC(C)c1nc(C2CCCN(c3nccc(C(F)(F)F)n3)C2)no1 (stereo not given) | -2.52%

Row | SMILES | cytotoxicity at 70.5 h
28 | CC(C)n1ncc2c1NC(=O)CC21C(=O)Nc2cc(Cl)cc(Cl)c21 (stereo not given) | -17.8%
29 | O=C(CCCNc1ncccn1)Nc1ccc(Cn2cncn2)cc1 | -10.8%
30 | NC(=O)c1ccc(OCC(=O)N2CCCC2c2ccc[nH]2)cc1 (stereo not given) | 42.3%
31 | CN(C)C(=O)[C@H]1C[C@@H]2CN(S(=O)(=O)Cc3ccccc3)C[C@H]1O2 | -17.1%
32 | O=C(CCN1CCCC1c1cccc(F)c1)N1CCc2sccc2C1 (stereo not given) | 0.336%
33 | COCCNC(=O)Cn1cc(NC(=O)c2ccc(C(C)(C)C)cc2)cn1 | 33.3%
34 | CCOc1ccccc1NC(=O)NCCc1ccoc1 | 12.2%
35 | COc1ccccc1CN(Cc1nc(C)no1)C1CC1 | -20.3%
36 | Cc1ccc(CN(C)C(=O)c2ccc(NC3CC3)nc2)o1 | -13.2%
37 | CNC(=O)[C@H]1CC[C@@H]2[C@@H](CCN2CCOCc2ccccc2)O1 | -12.3%
38 | COCCC(=O)N1CCc2cc(Cl)cc(Cl)c2C1 | -2.57%
39 | CC(Cn1cccn1)n1cnc2cccc(F)c2c1=O (stereo not given) | -7.35%
40 | CC(=O)Nn1ccc2c(nnc3c(-c4ccccc4)cnn32)c1=O | -28.5%
41 | O=C(c1ccccn1)N1CCCC(c2cc(C(F)F)n3ncnc3n2)C1 (stereo not given) | -4.56%
42 | FC(F)(F)c1cccc(OC2CCN(Cc3c[nH]cn3)CC2)c1 | 45.6%
43 | Cc1cnn(CC(=O)N2CCC(Nc3ccc(C)nn3)CC2)c1 | 12.8%
44 | CCCc1nc(C)c(C(=O)NCCn2nc3ccccn3c2=O)s1 | 19.2%
45 | Cc1ccc2c(c1)C(=O)NCC1(CCN(C(=O)c3cc(C)no3)CC1)O2 | -7.27%
46 | Cc1cc(-c2cc(N)c(=O)n(CC(=O)N3CCCC(C)C3)n2)c(C)o1 (stereo not given) | -9.35%
47 | Cc1ccc(F)c2c1CCCN2CC(=O)NC1CCS(=O)(=O)C1 (stereo not given) | -4.5%
48 | COc1ccc(-c2nc(CCNC(=O)NCC3CCOC3)co2)cc1 (stereo not given) | -11.8%
49 | Cc1cc(N2CCC(N(C)C(=O)c3sccc3C)CC2)nc(C)n1 | -4.75%
50 | O=C(COc1cccc(F)c1)N1C[C@@H](O)[C@H](N2CCOCC2)C1 | -5.2%
51 | CCN(CC)C(CNS(=O)(=O)c1ccc(C(N)=O)cc1)c1ccco1 (stereo not given) | -0.105%
52 | CCOCCOC(C)C(=O)NCc1ccc(N2CCCCC2)cc1 (stereo not given) | 0.804%
53 | CC(=O)NCC1CCN(C(=O)CCOc2ccc(C(C)C)cc2)CC1 | -0.488%
54 | CC(=O)Nc1cccc(CN2CCN(C3=NCC(C)(C)S3)CC2)c1 | -10.7%

Row | SMILES | cytotoxicity at 70.5 h
55 | Cn1cc(S(=O)(=O)NCCc2ccsc2)cn1 | -6.26%
56 | CCN(CC)S(=O)(=O)N1CCCC(c2nccn2Cc2ccncc2)C1 (stereo not given) | 8.67%
57 | CN1CCN(CCCNS(=O)(=O)Cc2ccccc2F)CC1 | -0.252%
58 | CS(=O)(=O)c1cccc(C(=O)NCc2nc3cc(F)ccc3[nH]2)c1 | -5.23%
59 | CN(C)CCNc1ncccc1CNC(=O)Nc1cc(F)cc(F)c1 | -12%
60 | CCOCC(=O)N1C[C@H]2CN(CC3CC3)C(=O)[C@H]2C1 | -5.22%
61 | COc1cccc(N2CCN(CC(O)c3cc(C)sc3C)CC2)c1 (stereo not given) | -2.76%
62 | O=C(N[C@@H]1CCC[C@@H](N2CCOCC2)[C@@H]1O)c1ncccn1 | 6.75%
63 | Cc1cccc(CN2Cc3[nH]nc(COCCO)c3C2)n1 | -0.969%
64 | CCn1cnnc1CNC(=O)N1CCN(Cc2ccccc2)CC1 | -1.29%
65 | COC1COC2(CCN(c3ccc(C#N)cc3)CC2)C1 (stereo not given) | -5.93%
66 | O=S1(=O)CCC(n2cc(C3=CCN(CCn4cccc4)CC3)cn2)C1 (stereo not given) | 26.8%
67 | CN1CCN(S(=O)(=O)c2ccccc2)Cc2cccnc21 | -4.28%
68 | Cc1cccc2[nH]c(C3CCN(C(=O)c4cnc(O)cc4O)CC3)nc12 | 22.7%
69 | COCCO[C@H]1CCN(C(=O)c2ccco2)[C@H]1Cc1cnn(C)c1 | -90.2%
70 | COC(=O)C(C)(C)NC(=O)c1cc(COc2ccccc2OC)[nH]n1 | 10.6%
71 | CCc1nc(CN(C)CC(N)=O)cs1 | -4.25%
72 | O=C(Nc1ccnc2ccnn12)c1ccc(N2CCC(O)CC2)cc1 | 6.12%
73 | Cc1cc(N2CCOCC2)ccc1NC(C)c1nc(C(C)C)no1 (stereo not given) | -0.714%
74 | O=C1CCCN1CCc1noc(-c2ccc3[nH]cnc3c2)n1 | -8.29%
75 | CN(C)S(=O)(=O)N1C[C@H]2C[C@H](C(=O)Nc3ccccc3)[C@@H](C1)O2 | -5.82%
76 | COCCN1CCC(CNC(=O)Nc2ccc(F)c(Cl)c2)C1 (stereo not given) | 24.8%
77 | O=C1CCCCCN1Cc1nc(C2(c3ccc(F)cc3)CCOC2)no1 (stereo not given) | 18.4%
78 | CN1C(=O)[C@H]2CC[C@@H]1CN(c1ncnc3ccsc13)C2 | 11.8%
79 | CCC[C@@H]1CN(c2ncnc3sccc23)C[C@H]1NS(C)(=O)=O | -4.58%
80 | CC(C)c1cccc(S(=O)(=O)NCCCN2CCC(O)CC2)c1 | 3.11%
